Like-named read-outs stand apart in the source and are kept apart here.

As usually defined, the IC50 is the concentration that inhibits the measured activity by half.

This test concerns the target T1, PDE3 (Homo sapiens, UniProt Q14432).
T1 construct: from tissue; host or cells: human platelets
The test is described as follows: In vitro assay for cAMP PDE-3 inhibitory activity. As to conditions: human platelet cyclic AMP phosphodiesterase, bound stated. It is filed as biochemical. The procedure: Human platelet cyclic AMP phosphodiesterase was prepared according to the method of Alvarez et al., Mol. Pharmacol. 29: 554 (1986). The PDE incubation medium contained 10 mM Tris-HCl buffer, pH 7.7, 10 mM MgSO4, and 1 μM […] (0.2 μCi) in a total volume of 1.0 mL. Test compounds were dissolved in DMSO immediately prior to addition to the incubation medium, and the resulting mixture was allowed to stand for 10 minutes prior to the addition of enzyme. Following the addition of PDE, the contents were mixed and incubated for 10 minutes at 30° C. Three assays each were performed for each of five test compound concentrations, the mean of the determinations (n=3) at each concentration was plotted, and IC50 values were determined graphically.
The ability of Compounds 25 and 8c to inhibit PDE3 and β-adrenergic receptor activity was examined both in vitro and in vivo. […] Non-selective β-adrenergic and β1-adrenergic radioligand binding assays were performed using rat cortical membranes; β2-adrenergic receptor assays were performed using membranes isolated from CHO cells expressing human, recombinant b2-adrenergic receptor; non-selective α1-adrenergic receptor assays were performed using rat forebrain membranes; and PDE3 binding assays were performed on human platelets. Values in percent illustrate percent inhibition at 1000 nM concentration.

The mark [1] stands for this setting: read-out: PDE IC50 inhibition values.

T1 sequence (Q14432 whole entry): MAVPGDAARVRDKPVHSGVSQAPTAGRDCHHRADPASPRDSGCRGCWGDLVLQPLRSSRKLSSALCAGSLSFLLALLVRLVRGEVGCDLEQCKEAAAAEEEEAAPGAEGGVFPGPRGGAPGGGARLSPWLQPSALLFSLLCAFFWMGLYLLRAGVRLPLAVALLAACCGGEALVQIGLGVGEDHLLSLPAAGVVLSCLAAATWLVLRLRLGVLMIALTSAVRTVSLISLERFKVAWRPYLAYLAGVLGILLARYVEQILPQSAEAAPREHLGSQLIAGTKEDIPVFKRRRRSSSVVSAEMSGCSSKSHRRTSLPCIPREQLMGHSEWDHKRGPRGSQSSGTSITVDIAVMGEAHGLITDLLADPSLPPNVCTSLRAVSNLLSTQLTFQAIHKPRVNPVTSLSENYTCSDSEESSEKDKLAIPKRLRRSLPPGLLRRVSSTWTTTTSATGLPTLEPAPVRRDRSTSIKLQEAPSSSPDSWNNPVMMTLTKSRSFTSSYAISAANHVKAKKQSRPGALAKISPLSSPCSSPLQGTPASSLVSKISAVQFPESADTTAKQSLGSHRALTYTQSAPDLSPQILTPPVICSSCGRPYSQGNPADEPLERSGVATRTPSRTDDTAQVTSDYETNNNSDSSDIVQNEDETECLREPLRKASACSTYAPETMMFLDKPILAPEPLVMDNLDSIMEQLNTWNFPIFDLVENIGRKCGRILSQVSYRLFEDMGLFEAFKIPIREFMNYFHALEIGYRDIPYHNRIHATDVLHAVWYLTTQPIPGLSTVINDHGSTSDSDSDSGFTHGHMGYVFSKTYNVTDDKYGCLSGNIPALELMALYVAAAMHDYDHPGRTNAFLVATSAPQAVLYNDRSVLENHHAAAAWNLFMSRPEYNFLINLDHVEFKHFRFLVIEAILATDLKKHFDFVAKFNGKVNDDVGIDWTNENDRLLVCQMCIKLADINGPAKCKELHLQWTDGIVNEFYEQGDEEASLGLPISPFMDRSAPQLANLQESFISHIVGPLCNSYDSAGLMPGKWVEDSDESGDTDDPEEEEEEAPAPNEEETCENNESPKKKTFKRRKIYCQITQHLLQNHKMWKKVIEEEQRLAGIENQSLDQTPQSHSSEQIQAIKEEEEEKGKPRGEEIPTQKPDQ

For `COCCc1ccc(OCC(O)CNC2CCN(C(=O)COc3ccc(C4=NNC(=O)CC4)cc3Cl)CC2)cc1` (racemic) [Compound 13, 6-{3-Chloro-4-[2-(4-{2-hydroxy-3-[4-(2-methoxy-ethyl)-phenoxy]-propylamino}-piperidin-1-yl)-2-oxo-ethoxy]-phenyl}-4,5-dihydro-2H-pyridazin-3-one], the IC50 (read-out: PDE3 inhibition IC50) is < 1 µM.
Same read-out and setting: under `O=C1CCC(c2ccc(OCC(=O)N3CCC(NC[C@H](O)COc4ccccc4)CC3)c(Cl)c2)=NN1` [Compound 8a, 6-(3-chloro-4-{2-[4-(2-hydroxy-3-phenoxy-propylamino)-piperidin-1-yl]-2-oxo-ethoxy}-phenyl)-4,5-dihydro-2H-pyridazin-3-one] stands < 1 µM; under `O=C1CCC(c2ccc(OCC(=O)N3CCC(NC[C@H](O)COc4ccccc4F)CC3)c(Cl)c2)=NN1` [Compound 8b, 6-[3-Chloro-4-(2-{4-[3-(2-fluoro-phenoxy)-2-hydroxy-propylamino]-piperidin-1-yl}-2-oxo-ethoxy)-phenyl]-4,5-dihydro-2H-pyridazin-3-one], < 1 µM; under `N#Cc1ccccc1OC[C@@H](O)CNC1CCN(C(=O)COc2ccc(C3=NNC(=O)CC3)cc2Cl)CC1` [Compound 8e, 2-[3-(1-{2-[2-chloro-4-(6-oxo-1,4,5,6-tetrahydro-pyridazin-3-yl)-phenoxy]-acetyl}-piperidin-4-ylamino)-2-hydroxy-propoxy]-benzonitrile], < 1 µM.
`Cc1ccccc1OC[C@@H](O)CNC1CCN(C(=O)COc2ccc(C3=NNC(=O)CC3)cc2Cl)CC1` [Compound 8f, 6-(3-chloro-4-{2-[4-(2-hydroxy-3-o-tolyloxy-propylamino)-piperidin-1-yl]-2-oxo-ethoxy}-phenyl)-4,5-dihydro-2H-pyridazin-3-one]: where the note is “read-out: PDE3 inhibition IC50”, the IC50 was < 1 µM.
Consider `COc1ccccc1OC[C@@H](O)CNC1CCN(C(=O)COc2ccc(C3=NNC(=O)CC3)cc2Cl)CC1` [Compound 8h, 6-[3-chloro-4-(2-{4-[2-hydroxy-3-(2-methoxy-phenoxy)-propylamino]-piperidin-1-yl}-2-oxo-ethoxy)-phenyl]-4,5-dihydro-2H-pyridazin-3-one], for which, for the setting “read-out: PDE3 inhibition IC50”, the IC50 is < 1 µM.
On to `O=C1CCC(c2ccc(OCC(=O)N3CCC(NC[C@H](O)COc4ccccc4OC(F)(F)F)CC3)c(Cl)c2)=NN1` [Compound 8i, 6-[3-chloro-4-(2-{4-[2-hydroxy-3-(2-trifluoromethoxy-phenoxy)-propylamino]-piperidin-1-yl}-2-oxo-ethoxy)-phenyl]-4,5-dihydro-2H-pyridazin-3-one], for which the concentration for half-maximal inhibition (IC50) was < 1 µM (read-out: PDE3 inhibition IC50) and < 0.1 µM under setting [1].
The corresponding values for `C=CCc1ccccc1OC[C@@H](O)CNC1CCN(C(=O)COc2ccc(C3=NNC(=O)CC3)cc2Cl)CC1` [Compound 8j, 6-[4-(2-{4-[3-(2-allyl-phenoxy)-2-hydroxy-propylamino]-piperidin-1-yl}-2-oxo-ethoxy)-3-chloro-phenyl]-4,5-dihydro-2H-pyridazin-3-one] are < 1 µM and < 0.1 µM.
Regarding `CC(=O)c1ccccc1OC[C@@H](O)CNC1CCN(C(=O)COc2ccc(C3=NNC(=O)CC3)cc2Cl)CC1` [Compound 8k, 6-[4-(2-{4-[3-(2-acetyl-phenoxy)-2-hydroxy-propylamino]-piperidin-1-yl}-2-oxo-ethoxy)-3-chloro-phenyl]-4,5-dihydro-2H-pyridazin-3-one], for the setting “read-out: PDE3 inhibition IC50”, the IC50 is < 1 µM.
The same measure, in the same setting: under `O=C1CCC(c2ccc(OCC(=O)N3CCC(NC[C@H](O)COc4cccc(Br)c4)CC3)c(Cl)c2)=NN1` [Compound 8l, 6-[4-(2-{4-[3-(3-bromo-phenoxy)-2-hydroxy-propylamino]-piperidin-1-yl}-2-oxo-ethoxy)-3-chloro-phenyl]-4,5-dihydro-2H-pyridazin-3-one] stands < 1 µM; under `N#Cc1cccc(OC[C@@H](O)CNC2CCN(C(=O)COc3ccc(C4=NNC(=O)CC4)cc3Cl)CC2)c1` [Compound 8m, 3-[3-(1-{2-[2-chloro-4-(6-oxo-1,4,5,6-tetrahydro-pyridazin-3-yl)-phenoxy]-acetyl}-piperidin-4-ylamino)-2-hydroxy-propoxy]-benzonitrile], < 1 µM; under `N#Cc1ccc(OC[C@@H](O)CNC2CCN(C(=O)COc3ccc(C4=NNC(=O)CC4)cc3Cl)CC2)cc1` [Compound 8o, 4-[3-(1-{2-[2-chloro-4-(6-oxo-1,4,5,6-tetrahydro-pyridazin-3-yl)-phenoxy]-acetyl}-piperidin-4-ylamino)-2-hydroxy-propoxy]-benzonitrile], < 1 µM.
For `COCCc1ccc(OC[C@@H](O)CNC2CCN(C(=O)COc3ccc(C4=NNC(=O)CC4)cc3Cl)CC2)cc1` [Compound 8r, 6-{3-chloro-4-[2-(4-{2-hydroxy-3-[4-(2-methoxy-ethyl)-phenoxy]-propylamino}-piperidin-1-yl)-2-oxo-ethoxy]-phenyl}-4,5-dihydro-2H-pyridazin-3-one], the IC50 (read-out: PDE3 inhibition IC50) is < 1 µM.
Turning to `O=C1CCC(c2ccc(OCC(=O)N3CCC(NC[C@H](O)COc4cccc5[nH]c6ccccc6c45)CC3)c(Cl)c2)=NN1` [Compound 17, 6-[4-(2-{4-[(S)-3-(9H-Carbazol-4-yloxy)-2-hydroxy-propylamino]-piperidin-1-yl}-2-oxo-ethoxy)-3-chloro-phenyl]-4,5-dihydro-2H-pyridazin-3-one], the IC50 (read-out: PDE3 inhibition IC50) was < 1 µM.
Turning to `O=C1CCC(c2ccc(OCCNC[C@H](O)COc3cccc4[nH]c5ccccc5c34)c(Cl)c2)=NN1` [Compound 22, 6-(4-{2-[(S)-3-(9H-carbazol-4-yloxy)-2-hydroxy-propylamino]-ethoxy}-3-chloro-phenyl)-4,5-dihydro-2H-pyridazin-3-one], the IC50 is < 1 µM (read-out: PDE3 inhibition IC50) and < 0.1 µM under setting [1].
The corresponding values for `O=C1CCC(c2ccc(OCCCNC[C@H](O)COc3cccc4[nH]c5ccccc5c34)c(Cl)c2)=NN1` [Compound 29, 6-(4-{3-[(S)-3-(9H-Carbazol-4-yloxy)-2-hydroxy-propylamino]-propoxy}-3-chloro-phenyl)-4,5-dihydro-2H-pyridazin-3-one] are < 1 µM and < 0.1 µM.
As for `O=C1CCC(c2ccc(OCC(=O)N3CCC(NC[C@H](O)COc4ccc5c(c4)[nH]c4ccccc45)CC3)c(Cl)c2)=NN1` [Compound 33, 6-[4-(2-{4-[(S)-3-(9H-Carbazol-2-yloxy)-2-hydroxy-propylamino]-piperidin-1-yl}-2-oxo-ethoxy)-3-chloro-phenyl]-4,5-dihydro-2H-pyridazin-3-one], the IC50 (read-out: PDE3 inhibition IC50) is < 1 µM.
Still for that read-out and setting: under `O=C1CCC(c2ccc(OCCNCC(O)COc3ccc4c(c3)[nH]c3ccccc34)c(Cl)c2)=NN1` (stereo not shown) [Compound 34, 6-(4-{2-[3-(9H-carbazol-2-yloxy)-2-hydroxy-propylamino]-ethoxy}-3-chloro-phenyl)-4,5-dihydro-2H-pyridazin-3-one] stands < 1 µM.
On the same count and under the same terms, under `O=C1CCC(c2ccc(OCCCNC[C@H](O)COc3ccc4c(c3)[nH]c3ccccc34)c(Cl)c2)=NN1` [Compound 35, 6-(4-{3-[(S)-3-(9H-Carbazol-2-yloxy)-2-hydroxy-propylamino]-propoxy}-3-chloro-phenyl)-4,5-dihydro-2H-pyridazin-3-one] stands < 1 µM.
In the case of `COCCc1ccc(OC[C@@H](O)CNCCCOc2ccc(C3=NNC(=O)CC3)cc2Cl)cc1` [Compound 36], the IC50 (read-out: PDE3 inhibition IC50) is < 1 µM and the IC50 under setting [1] was < 0.1 µM.
`COCCc1ccc(OC[C@@H](O)CNC(C)(C)CNC(=O)COc2ccc(C3=NNC(=O)CC3)cc2Cl)cc1` [Compound 40, 2-[2-Chloro-4-(6-oxo-1,4,5,6-tetrahydro-pyridazin-3-yl)-phenoxy]-N-(2-{(S)-2-hydroxy-3-[4-(2-methoxy-ethyl)-phenoxy]-propylamino}-2-methyl-propyl)-acetamide]: the IC50 (read-out: PDE3 inhibition IC50) was < 1 µM.
On the same count and under the same terms, under `COCCc1ccc(OC[C@@H](O)CNC2CCN(C(=O)COc3ccc(C4=NNC(=O)CC4)cc3Cl)C2)cc1` (stereo partly drawn) [Compound 42, 6-{3-Chloro-4-[2-(3-{(S)-2-hydroxy-3-[4-(2-methoxy-ethyl)-phenoxy]-propylamino}-pyrrolidin-1-yl)-2-oxo-ethoxy]-phenyl}-4,5-dihydro-2H-pyridazin-3-one] stands < 1 µM; under `COCCc1ccc(OC[C@@H](O)CNCCCCCOc2ccc(C3=NNC(=O)CC3)cc2Cl)cc1` [Compound 46], < 1 µM; under `COCCc1ccc(OC[C@@H](O)CNC2CN(C(=O)COc3ccc(C4=NNC(=O)CC4)cc3Cl)C2)cc1` [Compound 48, 6-{3-Chloro-4-[2-(3-{(S)-2-hydroxy-3-[4-(2-methoxy-ethyl)-phenoxy]-propylamino}-azetidin-1-yl)-2-oxo-ethoxy]-phenyl}-4,5-dihydro-2H-pyridazin-3-one], < 1 µM.
Regarding `O=C1CCC(c2ccc(OCCNCC(O)COc3cccc4[nH]ccc34)c(Cl)c2)=NN1` (stereo not shown) [Compound 52], the IC50 runs as follows: (read-out: PDE3 inhibition IC50) < 1 µM; under setting [1], < 0.1 µM.
The corresponding values for `O=C1CCC(c2ccc(OCCCCNCC(O)COc3cccc4[nH]c5ccccc5c34)c(Cl)c2)=NN1` (stereo not shown) [Compound 56] are < 1 µM and < 0.1 µM.
As to `O=C1CCC(c2ccc(OCCCCCNCC(O)COc3cccc4[nH]c5ccccc5c34)c(Cl)c2)=NN1` (stereo not shown) [Compound 57], under “read-out: PDE3 inhibition IC50”, the IC50 was < 1 µM.

These data come from patent US20080255134A1 (Artesian Therapeutics, Inc., priority 2004, published 2008).
